Like-named read-outs stand apart in the source and are kept apart here.
How the values were obtained:
[1] = test system: LPXTGase; experiment: Periodate treatment of LPXTGase, enzyme activity measured; assay type: biochemical, Streptococcus pyogenes; details: 5 mM periodate, 20 mM phosphate buffer pH 6, 4 hrs at 4° C.
Method: Carbohydrate composition of LPXTGase. The carbohydrate composition of purified LPXTGase was determined by the Rockefeller University Analytical Service Laboratory using a Waters 490 HPLC system. […] It seemed plausible that the charged amino acids of the enzyme are internalized and the hydrophobic amino acids are located on the exterior surface in view of the fact that the enzyme is likely to be associated with the cell membrane. […] To test this, the enzyme was incubated with 5 mM of periodate in 20 mM phosphate buffer, pH 6, for 4 hrs at 4° C., and enzyme activity was measured.

[2] = test system: trypsin; experiment: Periodate treatment of trypsin, enzyme activity measured; assay type: biochemical; details: identical manner (5 mM periodate, pH 6, 4 hrs at 4° C.)
[3] = test system: LPXTGase; assay type: biochemical, Streptococcus pyogenes; details: for peptide cleaved, cpm: 40 mM Tris-HCl pH 7.6, 0.1% Brij 35, control 41,530 cpm
Method: Enzyme Assay Method: Aliquots (10 μl) were removed from the column fractions and added to 1.5 ml Microfuge tubes. To each tube was added 30 μl of 40 mM Tris-HCl buffer, pH 7.6, containing 0.1% Brij 35, followed by a 10 μl suspension of bead-bound LPXTG-peptide substrate (0.5 to 0.8 μg, 100,000 to 200,000 cpm). The reaction mixture was incubated with vigorous shaking for 60 min at 37° C. After this time, 100 μl of water was added to each tube, and after vortex mixing, the mixture was centrifuged at 10,000 rpm for 5 min to pellet the beads. 100 μl of the supernatant was withdrawn and radioactivity was counted with a gamma counter.
The LPXTGase was exposed to a variety of salts and its activity tested for cleavage of the LPXTG (SEQ ID NO:1)-containing peptide.

[4] = 100 mM salt, one hour at 37° C.

SMILES	% of control (LPXTGase activity) [3] [%]	peptide cleaved, cpm ([3]; 20 mM salt, one hour at 37° C.)	peptide cleaved, cpm [3, 4]	other results
[O-][I+3]([O-])([O-])O [periodate]	–	–	–	effect of periodate treatment on LPXTGase enzyme activity [1]: nearly completely abolished the enzyme activity; effect of periodate treatment on trypsin enzyme activity [2]: no effect
O=C(O)CN(CCN(CC(=O)O)CC(=O)O)CC(=O)O [EDTA]	5.2	2,147 cpm	–	–
[Cl-].[Cl-].[Mg+2] [Magnesium chloride]	20	8,615 cpm	–	–
O=S(=O)([O-])[O-].[Na+].[Na+] [Sodium sulfate]	57	23,454 cpm	–	–
[Cl-].[Na+] [Sodium chloride]	–	–	6,720 cpm	% of control (LPXTGase activity) [3, 4]: 16%
[Ca+2].[Cl-].[Cl-] [Calcium chloride]	23	9,706 cpm	–	–
[Cl-].[K+] [Potassium chloride]	–	–	8,608 cpm	% of control (LPXTGase activity) [3, 4]: 20%
Cl.Cl.NCCCCN [Putrescene chloride]	–	8,710 cpm	–	% of control (LPXTGase activity) ([3]; 20 mM salt, one hour at 37° C.): 21%
Cl.NO [Hydroxylamine-HCl]	27	–	11,200 cpm	effect on LPXTGase activity (general statement) [3]: inhibited
O=P(O)(O)O [Sodium phosphate]	49	20,646 cpm	–	–
